# Non-standard residues stand in square brackets, D forms with d. Residues, ends and D or L forms follow the SMILES beside them. Cha = N[C@@H](CC1CCCCC1)C(=O)O
# Tests used:
# [1] = system: P. aeruginosa (ATCC 27853); format: cell-based, Pseudomonas aeruginosa; details: ATCC 27853, pH 7.4
# Method: (§3) Gram-positive bacteria Staphylococcus aureus (NCTC 10788) and Enterococcus faecalis (NCTC 12697) and Gram-negative bacteria Escherichia coli (NCTC 10418), Pseudomonas aeruginosa (ATCC 27853), and Klebsiella pneumoniae (ATCC 43816) were tested. […] All the bacterial strains were inoculated in Mueller Hinton broth (MHB), pH 7.4 (Oxiod, Basingstoke, UK) at 37 °C. Then, the log-phase bacteria were mixed with the peptide at the concentrations from 512 to 1 µM in two-fold dilution, in a 96 well-plate. The wells contained sterilized MHB and bacteria cultures were employed as a blank and growth control, respectively.
# trypsin = target: T1, trypsin (Bos taurus, UniProt P00760); assay: Enzyme stability assay, trypsin; format: in vitro ADME; details: peptide in PBS, peptide:trypsin 100:1 (m/m), time points 0-120 min, stopped with 10% TFA, RP-HPLC peak area, three replicates
# T1 construct: gene PRSS1
# T1 sequence (P00760 24-246): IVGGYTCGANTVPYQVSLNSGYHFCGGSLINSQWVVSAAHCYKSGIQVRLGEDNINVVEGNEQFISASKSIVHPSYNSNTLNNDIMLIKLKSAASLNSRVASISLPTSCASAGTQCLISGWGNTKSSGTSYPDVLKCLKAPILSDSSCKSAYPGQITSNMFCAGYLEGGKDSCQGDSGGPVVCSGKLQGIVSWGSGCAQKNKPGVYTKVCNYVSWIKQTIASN
# Method: (§1) The peptides were dissolved in phosphate-buffered saline (PBS) and mixed with the respective enzyme (trypsin and chymotrypsin) with a ratio of 100:1 (m/m). Then, 135 µl of the reaction solution was transferred into a new vial. The hydrolysis reaction was immediately terminated by adding 15 µl of 10% TFA at the different time points (0, 5, 10, 20, 40, 60, 120 min). The mixture was then analyzed by reverse-phase HPLC and respective peak areas were calculated to obtain the residual amount of peptides at different times.
# [2] = cited from earlier work
# Text: Dermaseptins are a class of cationic AMPs that were discovered from the skin of Phyllomedusa frogs, usually consisting of 28–34 amino acids. They can form an amphipathic α-helix in amphiphilic environments, which makes them bind easily to bacterial lipid bilayers. Dermaseptins contain a conserved Trp residue in position three and a unique internal motif, -AAA/GKAAL/G/NA-, and exert broad-spectrum antimicrobial activity against a range of ESKAPE pathogens. […] Compared with the other AMPs applied using the same model, such as Japonicin-2LF [53], DMPC-10B exerted relatively stronger efficacy. Japonicin-2LF prevented around 50% mortality at 50 mg/kg in treatment of MRSA infection, but DMPC-10B achieved similar efficacy at 20 mg/kg.
# E. faecalis (NCTC 12697) = format: cell-based, Enterococcus faecalis; details: NCTC 12697, pH 7.4
# Method: as §3
# E. coli (NCTC 10418) [3] = format: cell-based, Escherichia coli; details: NCTC 10418, pH 7.4
# Method: as §3
# S. aureus (NCTC 10788) [4] = format: cell-based, Staphylococcus aureus; details: NCTC 10788, pH 7.4
# Method: as §3
# chymotrypsin = chymotrypsin (Bos taurus, UniProt P00766); assay: Enzyme stability assay, chymotrypsin; format: in vitro ADME; details: peptide in PBS, peptide:chymotrypsin 100:1 (m/m), time points 0-120 min, stopped with 10% TFA, RP-HPLC peak area, three replicates
# Method: as §1
# [5] = system: K. pneumoniae (ATCC BAA 2342); format: cell-based, Klebsiella pneumoniae; details: ATCC BAA 2342, pH 7.4
# Method: as §3
# S. aureus (NCTC 10788) [6] = format: cell-based, Staphylococcus aureus
# Method: (§2) Furthermore, the antimicrobial activity in the presence of MgCl2, CaCl2, NaCl and 10% fetal bovine serum (FBS) was investigated. In detail, 2 and 5 mM of MgCl2 and CaCl2, and 150 and 375 mM NaCl, were applied, respectively. The supplements were added into the medium that was used for diluting the bacteria suspension. Then, the diluted bacteria culture was mixed with the peptide stock solution in the 96-well plate, as mentioned above. The assay was performed three times and each assay contained 5 replicates.
# MRSA (NCTC 12493) = format: cell-based, methicillin-resistant S. aureus; details: NCTC 12493, pH 7.4
# Method: as §3
# E. coli (NCTC 10418) [7] = format: cell-based, Escherichia coli
# Method: as §2
# [8] = system: K. pneumoniae (ATCC 43816); format: cell-based, Klebsiella pneumoniae; details: ATCC 43816, pH 7.4
# Method: as §3
# [9] = system: K. pneumoniae (ATCC BAA 1705); format: cell-based, Klebsiella pneumoniae; details: ATCC BAA 1705, pH 7.4
# Method: as §3
structure (smiles),measurement,setting,value
CC(C)C[C@H](NC(=O)[C@H](C)N)C(=O)N[C@@H](Cc1c[nH]c2ccccc12)C(=O)N[C@@H](CCCCN)C(=O)N[C@@H](CCCCN)C(=O)N[C@@H](CC(C)C)C(=O)N[C@@H](CC(C)C)C(=O)N[C@@H](CCCCN)C(=O)N[C@@H](CCCCN)C(=O)N[C@@H](CC1CCCCC1)C(N)=O [DMPC-10A] (H-ALWKKLLKK[Cha]-NH2),MBC,[1],4 µM
same,MIC,[1],4 µM
same,time in which trypsin completely cleaved the peptide,trypsin,10 min
same,hemolytic effect,[2],considerable hemolytic effect
same,MBC,E. faecalis (NCTC 12697),64 µM
same,MIC,E. faecalis (NCTC 12697),64 µM
same,MBC,E. coli (NCTC 10418) [3],8 µM
same,MIC,E. coli (NCTC 10418) [3],8 µM
same,MBC,S. aureus (NCTC 10788) [4],8 µM
same,MIC,S. aureus (NCTC 10788) [4],4 µM
same,time in which chymotrypsin cleaved the peptide,chymotrypsin,40 min
same,MBC,[5],16 µM
same,MIC,[5],16 µM
same,MIC with CaCl2 5 mM,S. aureus (NCTC 10788) [6],64 µM
same,MIC with FBS 10%,S. aureus (NCTC 10788) [6],16 µM
same,MIC with MgCl2 5 mM,S. aureus (NCTC 10788) [6],64 µM
same,MIC with NaCl 150 mM,S. aureus (NCTC 10788) [6],32 µM
same,MIC with NaCl 375 mM,S. aureus (NCTC 10788) [6],64 µM
same,"MIC, no additive",S. aureus (NCTC 10788) [6],4 µM
same,MBC,MRSA (NCTC 12493),16 µM
same,MIC,MRSA (NCTC 12493),8 µM
same,MIC with CaCl2 5 mM,E. coli (NCTC 10418) [7],64 µM
same,MIC with FBS 10%,E. coli (NCTC 10418) [7],16 µM
same,MIC with MgCl2 5 mM,E. coli (NCTC 10418) [7],64 µM
same,MIC with NaCl 150 mM,E. coli (NCTC 10418) [7],16 µM
same,MIC with NaCl 375 mM,E. coli (NCTC 10418) [7],32 µM
same,"MIC, no additive",E. coli (NCTC 10418) [7],8 µM
same,MBC,[8],64 µM
same,MIC,[8],4 µM
same,MBC,[9],32 µM
same,MIC,[9],32 µM

# From article PMC7557582, “Broad-Spectrum Antimicrobial Activity and Improved Stability of a D-Amino Acid Enantiomer of DMPC-10A, the Designed Derivative of Dermaseptin Truncates” (Antibiotics, 2020)
